Source: patent publication US4748122A, “2,5-diketo-D-gluconic acid reductase” (Shionogi & Co., Ltd., priority 1983, dated 1988)
Values joined by “and” are separate entries in the source; they are usually repeats but may differ in a detail not shown here. Equal values may be shown once.

How the values were obtained:
25DKG-Rase [1] = target: T1, 25DKG-Rase (Corynebacterium sp., UniProt P15339); assay: Spectrophotometric enzymatic activity (decrease in absorption at 340 nm), purified enzyme solution of Example 1; format: biochemical, Corynebacterium sp. No. 20A-77 mutant (FERM-BP 108); details: for Activity of the purified enzyme solution (1 ml) / reductive activity (in words): NADPH, 0.1M TB pH 7, 30° C.; for Enzymatic activity: per 1 ml purified enzyme solution
T1 construct: The enzyme is an intracellular enzyme extracted from the cells of the 2KLG producing strain; made in house; host or cells: natural producer Corynebacterium sp; No. 20A-77 mutant FERM-BP 108, enzyme purified from sonicated cells; not recombinant
T1 sequence (P15339 2-277 limits assumed): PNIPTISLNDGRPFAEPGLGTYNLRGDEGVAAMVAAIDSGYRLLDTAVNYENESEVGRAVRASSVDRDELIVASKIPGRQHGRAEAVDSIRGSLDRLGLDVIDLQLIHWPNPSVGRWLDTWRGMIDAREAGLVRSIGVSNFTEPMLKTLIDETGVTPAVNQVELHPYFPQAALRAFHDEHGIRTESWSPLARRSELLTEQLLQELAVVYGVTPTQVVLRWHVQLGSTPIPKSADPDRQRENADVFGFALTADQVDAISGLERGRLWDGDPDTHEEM

25DKG-Rase [2] = target: T1, 25DKG-Rase; format: biochemical, Corynebacterium sp. No. 20A-77 mutant (FERM-BP 108); details: 60 minutes
[3] = system: 25DKG-Rase derived from Strain K-106; assay: Enzymatic activity of 25DKG-Rase obtained from K-106 (Example 2); format: biochemical, Corynebacterium sp. No. K-106 (ATCC 31,088)
Method: (§1) Two point nine (2.9) ml of 0.1M TB (pH 7) containing 0.3 μmoles of NADPH was placed in a quartz cubette having 1 cm optical length difference and added 1-5 μl of the enzyme solution obtained above (3) thereto. Then, to the mixture, each 0.1 ml of the various substrate solutions (0.1M) were added while being kept at 30° C. Reactivities of the enzyme on the respective substrates were determined, by means of successive measurement of the decrease in absorption at 340 nm, on the basis of the decrease for 1 minute.
(§2) The measurements of the physico-chemical properties were conducted in a manner as described in Example 1-(4) (5).
(§3) Enzymatic activities of 25DKG-Rases obtained from K-106 and T-13 were measured at varying pH from 4 to 9 (substrate: Ca-25DKG, reaction temperature: 30° C.).
(§4) The enzymatic activities of 25DKG-Rases obtained from K-106 and T-13 were measured at varying temperature (pH 7.0, substrate: Ca-25DKG).

[4] = system: 25DKG-Rase derived from Strain T-13; assay: Enzymatic activity of 25DKG-Rase obtained from T-13 (Example 2); format: biochemical, Corynebacterium sp. No. T-13 (ATCC 31,089)
Method: as §1, §2, §3, §4

[5] = system: 25DKG-Rase derived from Strain K-106; assay: Substrate specificity by product formation, enzyme from K-106; format: biochemical, Corynebacterium sp. No. K-106 (ATCC 31,088)
Method: (§5) The purified enzyme solution (10 μl) obtained above (3) was mixed with 25 μmoles of a substrate (Ca-25DKG or 5KF) and 3.0 ml of 0.01M TB (pH 7) containing 15 μmoles of NADPH and the mixture was allowed to react at 30° C. for 60 minutes. After the reaction, the reaction mixture was analyzed by paper chromatography (developing solvent; phenol:formic acid:water=75:4:25, chromogenic agent; AHF solution, prepared by dissolving 0.93 g of anilin and 1.66 g of phthalic acid in 100 ml of water-saturated n-butanol and heating at 105° C. for 2 minutes) and by gas chromatography (column; SE-52, carrier gas: Helium, sample; trimethylsilylated derivative). […] In Table 1, the results of quantitative determination of the products by gas chromatography are shown.
as §2

[6] = system: 25DKG-Rase derived from Strain T-13; assay: Substrate specificity by product formation, enzyme from T-13; format: biochemical, Corynebacterium sp. No. T-13 (ATCC 31,089)
Method: as §5, §2

25DKG-Rase [7] = target: T2, 25DKG-Rase (Corynebacterium sp. SHS752001, UniProt P15339); assay: Action, substrate specificity and Km of the purified 25DKG-Rase (general description); format: biochemical, genus Corynebacterium; details: in the presence of NADPH
T2 sequence (P15339 whole entry): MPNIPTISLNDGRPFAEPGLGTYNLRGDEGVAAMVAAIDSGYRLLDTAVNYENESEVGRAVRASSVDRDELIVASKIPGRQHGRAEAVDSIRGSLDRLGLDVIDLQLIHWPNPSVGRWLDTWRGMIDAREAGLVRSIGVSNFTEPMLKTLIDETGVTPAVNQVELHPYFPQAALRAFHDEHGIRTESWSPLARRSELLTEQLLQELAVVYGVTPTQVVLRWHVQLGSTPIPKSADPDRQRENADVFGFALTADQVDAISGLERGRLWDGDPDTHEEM
Description: As shown, NADPH is used as a hydrogen donor in the above reaction. Reduced nicotinamide adenine dinucleotide (NADH) may also be used as the hydrogen donor in the above reaction but the reaction velocity in that case is lowered to one two hundred and fiftieth (1/250) or less of that in the reaction where NADPH is used.
The enzymatic activity is spectrophotometrically measured on the basis of the decrease in absorption at 340 nm which corresponds to the oxidation of NADPH as the result of the enzyme reaction at 30° C. in 0.1M Tris buffer (pH 7) containing 0.1 mM NADPH and 3.3 mM Ca-25DKG. One unit of the enzymatic activity is defined as that oxidizes 1 μmole of NADPH for one minute.

25DKG-Rase [8] = target: T2, 25DKG-Rase; assay: as above; format: biochemical, genus Corynebacterium; details: in the presence of NADP or NAD
[9] = pH stability of the enzyme (residual activities after treatment in buffers); format: physicochemical
Method: (determined on the basis of residual activities after treatments in 0.1M dimethylglutaric acid buffer for pH 4-5, in 0.1M Good buffer (PIPES) for pH 6-7 and in 0.1M Tris-HCl buffer for ph 8-9 at 28° C. for 30 minutes). Residual activity of 70% or more is recognized in pH 5-7 while only those of 30% or less are recognized in pH 4 or below, and in pH 8 or above.
Ninety-six (96) % or more of the activity is lost after being stood at pH 4 or below, or pH 8 or above and at 28° C. for 2 hours.

[10] = Isoelectric point electrophoresis of the enzyme; format: physicochemical
Method: (10) Isoelectric point: pH 4.4±0.3 (measured by isoelectric point electrophoresis).
Five (5) μl of the enzyme solution was then subjected to isoelectric point electrophoresis (gel; polyacrylamide: conditions of phoresis(a); pH interval 2.5-5; anode electrolyte=0.1M H2 SO4 cathode electrolyte=0.1M NaOH, 6W, 2,700 VH: conditions of phoresis(b); pH interval 4.0-6.5; anode electrolyte=0.04M DL-glutamic acid, cathode electrolyte=0.2M NaOH, 25W, 2,600 VH; temperature, 18°-20° C.) to give a result that the enzyme migrated in a single band at a position which corresponds to pH 4.4±0.2. From the previously-describedfacts, it was confirmed that the purified enzyme solution was one which solely contains 25DKG-Rase.

[11] = Optimum pH and range of reaction temperature of the enzyme; format: biochemical
Method: In order to clarify the relation between the reaction velocity of the 25DKG-Rase and pH, the enzymatic activities were measured by using the following buffers in place of the buffer of the reaction system in (5)-(ii).
The results of the measurements of the enzymatic activities on the substrates, Ca-25DKG and 5KF at the respective pHs are shown in Table 4 below.
The reaction velocities in the reaction system of (5)-(ii) which employs the substrate, Ca-25DKG were measured at varying temperatures from 15° to 50° C.
as §3

O=C(CO)[C@@H](O)[C@H](O)C(=O)CO [5KF, 5-keto-D-fructose]
Activity of the purified enzyme solution (1 ml) (25DKG-Rase [1]): 94 units | reductive activity (in words) (25DKG-Rase [1]): shows a high activity | Enzymatic activity (25DKG-Rase [1]; pH 4.0, 3,3-dimethylglutaric acid buffer): 2 unit/ml | Enzymatic activity (25DKG-Rase [1]; pH 5.0, 3,3-dimethylglutaric acid buffer): 33 unit/ml | Enzymatic activity (25DKG-Rase [1]; pH 6.0, Good (PIPES) buffer): 96 unit/ml | Enzymatic activity (25DKG-Rase [1]; pH 6.5, Good (PIPES) buffer): 95 unit/ml | Enzymatic activity (25DKG-Rase [1]; pH 7.0, Good (PIPES) buffer): 92 unit/ml | Enzymatic activity (25DKG-Rase [1]; pH 7.0, Tris buffer): 93 unit/ml | Enzymatic activity (25DKG-Rase [1]; pH 7.5, Tris buffer): 68 unit/ml | Enzymatic activity (25DKG-Rase [1]; pH 8.0, Tris buffer): 48 unit/ml | Enzymatic activity (25DKG-Rase [1]; pH 8.5, Tris buffer): 27 unit/ml | Enzymatic activity (25DKG-Rase [1]; pH 9.0, Tris buffer): 13 unit/ml | Concentration of the product (25DKG-Rase [2]; 10 μl enzyme solution, 25 μmoles substrate, 15 μmoles NADPH, 30° C., gas chromatography): 795 µg/mL | product formed (paper and gas chromatography) (25DKG-Rase [2]; NADPH, 0.01M TB pH 7, 30° C.): only L-sorbose is produced | Enzymatic activity per protein ([3]; enzyme from Strain K-106, NADPH): 152 units/mg protein | Enzymatic activity ([3]; enzyme from Strain K-106, purified enzyme solution, NADPH): 38.3 units/ml | Enzymatic activity per protein ([4]; enzyme from Strain T-13, NADPH): 229 units/mg protein | Enzymatic activity ([4]; enzyme from Strain T-13, purified enzyme solution, NADPH): 39 units/ml | product formed (substrate specificity) [5]: only L-sorbose | product formed (substrate specificity) [6]: only L-sorbose | specificities for substrates (reducing action) (25DKG-Rase [7]): shows specificities

O=C(O)C(=O)[C@@H](O)[C@H](O)[C@@H](O)CO [2KLG, 2-keto-L-gulonic acid]
reductive activity (in words) (25DKG-Rase [1]): does not show any reductive activity | product formed (substrate specificity) [5]: None was produced | product formed (substrate specificity) [6]: None was produced | specificities for substrates (reducing action) (25DKG-Rase [7]): does not show any reducing action | production of 25DKG or 5KF from 2KLG or L-sorbose (reverse reaction) (25DKG-Rase [8]): No or not substantial production

2,5-diketo-D-gluconic acid reductase [25DKG-Rase]
pH stability ([9]; 28° C. for 30 minutes in 0.1M buffers): 5-7 pH | Residual activity ([9]; pH 4 or below, and pH 8 or above, 28° C. for 30 minutes): ≤ 30% | activity lost ([9]; pH 4 or below, or pH 8 or above, 28° C. for 2 hours): ≥ 96% | Residual activity ([9]; pH 5-7, 28° C. for 30 minutes): ≥ 70% | isoelectric point [10]: 4.4±0.2 pH and 4.4±0.3 pH | optimum pH [11]: 6-7 pH

O=C(CO)[C@@H](O)[C@H](O)[C@@H](O)CO [L-sorbose]
Activity of the purified enzyme solution (1 ml) (25DKG-Rase [1]): 0 units | reductive activity (in words) (25DKG-Rase [1]): does not show any reductive activity | product formed (substrate specificity) [5]: None was produced | product formed (substrate specificity) [6]: None was produced | specificities for substrates (reducing action) (25DKG-Rase [7]): does not show any reducing action | production of 25DKG or 5KF from 2KLG or L-sorbose (reverse reaction) (25DKG-Rase [8]): No or not substantial production
